Test results published in patent publication US10975037B2 (priority 2018, dated 2021).
Where two headings read alike, the source gives them in different places.

Assays:
full-length human RORγt = full-length human RORγt (Homo sapiens (Human), UniProt P51449); assay: RORγt (full-length human) reporter assay, conditions A or B, HEK293T cells; format: cell-based; settings: for inhibition at 2 µM / inhibition at 0.67 µM / inhibition at […] / inhibition at 6 µM: HEK-293T; for inhibition at 2 µM / inhibition at 0.67 µM / inhibition at […]: read-out: RORγt (FL) Reporter Assay A or B, % inhibition; for IC50: RORγt (FL) Reporter Assay A or B, IC50, HEK293T cells; for inhibition at […]: 0.22 μM compound concentration (footnote *******); for inhibition at 6 µM: read-out: RORγt (FL) Reporter Assay A or B, % inhibition @ 6 μM
Sequence of full-length human RORγt (P51449 other isoform, or with tags, fused parts or gaps): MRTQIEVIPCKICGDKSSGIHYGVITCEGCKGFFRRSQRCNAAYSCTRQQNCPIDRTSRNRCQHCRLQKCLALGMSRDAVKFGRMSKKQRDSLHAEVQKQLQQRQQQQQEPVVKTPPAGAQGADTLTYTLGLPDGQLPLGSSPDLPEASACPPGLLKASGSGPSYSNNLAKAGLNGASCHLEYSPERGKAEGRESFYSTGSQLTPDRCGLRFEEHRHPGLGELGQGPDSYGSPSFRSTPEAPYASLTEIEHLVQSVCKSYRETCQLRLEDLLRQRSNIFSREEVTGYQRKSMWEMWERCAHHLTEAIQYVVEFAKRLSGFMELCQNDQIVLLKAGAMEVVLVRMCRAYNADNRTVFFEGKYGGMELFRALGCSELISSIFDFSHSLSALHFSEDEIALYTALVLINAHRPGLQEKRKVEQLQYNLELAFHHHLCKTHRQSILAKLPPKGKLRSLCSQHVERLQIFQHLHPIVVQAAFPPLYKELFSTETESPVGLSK
How it was run: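 After 16–20 h, dual firefly/Renilla luciferase luminescence was read. Firefly signal was normalized to DMSO and saturating reference compound, then to Renilla, and fitted for IC50; % inhibition is versus DMSO.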

[1] = target: human RORγt ligand binding domain (RORγt LBD) (Homo sapiens (Human), UniProt P51449); assay: RORγt ThermoFluor® assay (thermal shift binding); settings: read-out: ThermoFluor® Assay, Kd
Sequence of human RORγt ligand binding domain (RORγt LBD) (P51449 other isoform, or with tags, fused parts or gaps): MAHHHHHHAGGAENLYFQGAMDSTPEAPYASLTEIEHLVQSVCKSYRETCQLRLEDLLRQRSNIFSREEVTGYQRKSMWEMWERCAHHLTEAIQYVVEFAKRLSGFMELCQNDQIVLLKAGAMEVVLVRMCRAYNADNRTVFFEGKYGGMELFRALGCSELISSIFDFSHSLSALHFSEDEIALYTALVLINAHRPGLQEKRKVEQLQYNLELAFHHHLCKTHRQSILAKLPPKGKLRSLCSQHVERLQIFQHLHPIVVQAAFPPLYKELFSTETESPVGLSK
How it was run: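 Thermal shift with 0.065 mg/mL RORγt LBD and 60 μM 1,8-ANS in 100 mM Hepes pH 7.0, 10 mM NaCl, 2.5 mM GSH, 0.002% Tween-20.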

[2] = 0.67 μM compound concentration (footnote ****)

inhibition at 2 µM (full-length human RORγt; 2 μM compound concentration) [%] | IC50 (full-length human RORγt) [nM] | Kd [1] [nM] | Compound | further results
100 | 28 | 3.8 | CCn1nc(C(=O)NC[C@H]2CC[C@H](S(C)(=O)=O)CC2)c(Cl)c1-c1ccc(N[C@H](C)C(F)(F)F)cc1C(F)(F)F [Example 172, 4-Chloro-1-ethyl-N-(((1r,4R)-4-(methylsulfonyl)cyclohexyl)methyl)-5-(2-(trifluoromethyl)-4-(((R)-1,1,1-trifluoropropan-2-yl)amino)phenyl)-1H-pyrazole-3-carboxamide] | 
 | 38 | 5.9 | CCn1nc(C(=O)NC[C@H]2CC[C@H](S(C)(=O)=O)CC2)c(Cl)c1-c1ccc(CCC(F)(F)F)cc1Cl [Example 174, 4-Chloro-5-(2-chloro-4-(3,3,3-trifluoropropyl)phenyl)-1-ethyl-N-(((1r,4r)-4-(methylsulfonyl)cyclohexyl)methyl)-1H-pyrazole-3-carboxamide] | inhibition at 0.67 µM (full-length human RORγt): 40%
88 | 510 | 230 | CCn1nc(C(=O)NC[C@H]2CC[C@@H](S(C)(=O)=O)CC2)c(Cl)c1-c1ccc(N[C@H](C)C(F)(F)F)cc1Cl [Example 175, 4-Chloro-5-(2-chloro-4-(((R)-1,1,1-trifluoropropan-2-yl)amino)phenyl)-1-ethyl-N-(((1s,4S)-4-(methylsulfonyl)cyclohexyl)methyl)-1H-pyrazole-3-carboxamide] | 
 | 18 | 3.8 | CCn1nc(C(=O)NC[C@H]2CC[C@H](S(C)(=O)=O)CC2)c(Cl)c1-c1ccc(N[C@H](C)C(F)(F)F)cc1Cl [Example 176, 4-Chloro-5-(2-chloro-4-(((R)-1,1,1-trifluoropropan-2-yl)amino)phenyl)-1-ethyl-N-(((1r,4R)-4-(methylsulfonyl)cyclohexyl)methyl)-1H-pyrazole-3-carboxamide] | inhibition at 0.67 µM (full-length human RORγt; [2]): 102%
 | 7.2 | 2.2 | CCn1nc(C(=O)NC[C@H]2CC[C@H](S(C)(=O)=O)CC2)c(Cl)c1-c1ccc(CC(C)(C)C(F)(F)F)cc1F [Example 177, 4-Chloro-1-ethyl-5-(2-fluoro-4-(3,3,3-trifluoro-2,2-dimethylpropyl)phenyl)-N-(((1r,4r)-4-(methylsulfonyl)cyclohexyl)methyl)-1H-pyrazole-3-carboxamide] | inhibition at […] (full-length human RORγt): 77%
 | 30 | 2.4 | CCn1nc(C(=O)NC[C@]2(O)CC[C@@H](S(C)(=O)=O)CC2)c(Cl)c1-c1ccc(CC(C)(C)C(F)(F)F)cc1F [Example 178, 4-Chloro-1-ethyl-5-(2-fluoro-4-(3,3,3-trifluoro-2,2-dimethylpropyl)phenyl)-N-(((1s,4s)-1-hydroxy-4-(methylsulfonyl)cyclohexyl)methyl)-1H-pyrazole-3-carboxamide] | inhibition at 0.67 µM (full-length human RORγt; [2]): 89%
52 | 69 | 15 | CCn1nc(C(=O)NC[C@H]2CC[C@H](S(C)(=O)=O)CC2)c(Cl)c1-c1ccc(CCC(F)(F)F)cc1F [Example 179, 4-Chloro-1-ethyl-5-(2-fluoro-4-(3,3,3-trifluoropropyl)phenyl)-N-(((1r,4r)-4-(methylsulfonyl)cyclohexyl)methyl)-1H-pyrazole-3-carboxamide] | 
41 | 66 | 46 | CCn1nc(C(=O)NC[C@]2(O)CC[C@@H](S(C)(=O)=O)CC2)c(Cl)c1-c1ccc(CCC(F)(F)F)cc1F [Example 180, 4-Chloro-1-ethyl-5-(2-fluoro-4-(3,3,3-trifluoropropyl)phenyl)-N-(((1s,4s)-1-hydroxy-4-(methylsulfonyl)cyclohexyl)methyl)-1H-pyrazole-3-carboxamide] | 
101 | 45 | 7 | CCn1nc(C(=O)NC[C@H]2CC[C@H](S(C)(=O)=O)CC2)c(Cl)c1-c1ccc(N[C@H](C)C(F)(F)F)cc1F [Example 181, 4-Chloro-1-ethyl-5-(2-fluoro-4-(((R)-1,1,1-trifluoropropan-2-yl)amino)phenyl)-N-(((1r,4R)-4-(methylsulfonyl)cyclohexyl)methyl)-1H-pyrazole-3-carboxamide] | 
 | 19 | 1 | CCn1nc(C(=O)NC[C@H]2CC[C@H](S(C)(=O)=O)CC2)c(Cl)c1-c1ccc(CC(C)(C)C(F)(F)F)cc1C [Example 182, 4-Chloro-1-ethyl-5-(2-methyl-4-(3,3,3-trifluoro-2,2-dimethylpropyl)phenyl)-N-(((1r,4r)-4-(methylsulfonyl)cyclohexyl)methyl)-1H-pyrazole-3-carboxamide] | inhibition at […] (full-length human RORγt): 81%
 | 3.9 | 3 | CCn1nc(C(=O)NC[C@]2(O)CC[C@@H](S(C)(=O)=O)CC2)c(Cl)c1-c1ccc(CC(C)(C)C(F)(F)F)cc1C [Example 183, 4-Chloro-1-ethyl-N-(((1s,4s)-1-hydroxy-4-(methylsulfonyl)cyclohexyl)methyl)-5-(2-methyl-4-(3,3,3-trifluoro-2,2-dimethylpropyl)phenyl)-1H-pyrazole-3-carboxamide] | inhibition at […] (full-length human RORγt): 70%
101 | 52 | 13 | CCn1nc(C(=O)NC[C@H]2CC[C@H](S(C)(=O)=O)CC2)c(Cl)c1-c1ccc(N[C@H](C)C(F)(F)F)cc1C [Example 184, 4-Chloro-1-ethyl-5-(2-methyl-4-(((R)-1,1,1-trifluoropropan-2-yl)amino)phenyl)-N-(((1r,4R)-4-(methylsulfonyl)cyclohexyl)methyl)-1H-pyrazole-3-carboxamide] | 
92 | 30 | 2.4 | COCCn1nc(C(=O)NC[C@H]2CC[C@H](S(C)(=O)=O)CC2)c(Cl)c1-c1ccc(CC(C)(C)C(F)(F)F)cc1OC [Example 185, 4-Chloro-5-(2-methoxy-4-(3,3,3-trifluoro-2,2-dimethylpropyl)phenyl)-1-(2-methoxyethyl)-N-(((1r,4r)-4-(methylsulfonyl)cyclohexyl)methyl)-1H-pyrazole-3-carboxamide] | 
 | 34 | 7.7 | COCCn1nc(C(=O)NC[C@]2(O)CC[C@@H](S(C)(=O)=O)CC2)c(Cl)c1-c1ccc(CC(C)(C)C(F)(F)F)cc1OC [Example 186, 4-Chloro-N-(((1s,4s)-1-hydroxy-4-(methylsulfonyl)cyclohexyl)methyl)-5-(2-methoxy-4-(3,3,3-trifluoro-2,2-dimethylpropyl)phenyl)-1-(2-methoxyethyl)-1H-pyrazole-3-carboxamide] | inhibition at 6 µM (full-length human RORγt; 6 μM compound concentration): 96%
34 | > 2000 | 11 | CCn1nc(C(=O)NC[C@]2(O)CC[C@@H](S(C)(=O)=O)CC2)c(Cl)c1-c1ccc(CCC(F)(F)F)cc1OC(F)(F)F [Example 188, 4-Chloro-1-ethyl-N-(((1s,4s)-1-hydroxy-4-(methylsulfonyl)cyclohexyl)methyl)-5-(2-(trifluoromethoxy)-4-(3,3,3-trifluoropropyl)phenyl)-1H-pyrazole-3-carboxamide] | 
 | > 2000 | 4.8 | CCn1nc(C(=O)NC[C@H]2CC[C@H](S(C)(=O)=O)CC2)c(Cl)c1-c1ccc(CCC(F)(F)F)cc1OC(F)(F)F [Example 189, 4-Chloro-1-ethyl-N-(((1r,4r)-4-(methylsulfonyl)cyclohexyl)methyl)-5-(2-(trifluoromethoxy)-4-(3,3,3-trifluoropropyl)phenyl)-1H-pyrazole-3-carboxamide] | inhibition at 2 µM (full-length human RORγt): 47%
104 | 21 | 1.2 | CCn1nc(C(=O)NC[C@H]2CC[C@H](S(C)(=O)=O)CC2)c(Cl)c1-c1ccc(N[C@H](C)C(F)(F)F)cc1OC(F)(F)F [Example 190, 4-Chloro-1-ethyl-N-(((1r,4R)-4-(methylsulfonyl)cyclohexyl)methyl)-5-(2-(trifluoromethoxy)-4-(((R)-1,1,1-trifluoropropan-2-yl)amino)phenyl)-1H-pyrazole-3-carboxamide] | 
93 | 120 | 29 | CCn1nc(C(=O)NC[C@H]2CC[C@H](S(C)(=O)=O)CC2)c(Cl)c1-c1ccc(N[C@H](C)C(F)(F)F)cc1 [Example 194, 4-Chloro-1-ethyl-N-(((1r,4R)-4-(methylsulfonyl)cyclohexyl)methyl)-5-(4-(((R)-1,1,1-trifluoropropan-2-yl)amino)phenyl)-1H-pyrazole-3-carboxamide] | 
 | 300 | 52 | CCn1nc(C(=O)NC[C@]2(O)CC[C@@H](S(C)(=O)=O)CC2)c(Cl)c1-c1ccc(N[C@H](C)C(F)(F)F)cc1 [Example 195, 4-Chloro-1-ethyl-N-(((1s,4S)-1-hydroxy-4-(methylsulfonyl)cyclohexyl)methyl)-5-(4-(((R)-1,1,1-trifluoropropan-2-yl)amino)phenyl)-1H-pyrazole-3-carboxamide] | inhibition at 6 µM (full-length human RORγt): 96%

Compound | inhibition at 2 µM (full-length human RORγt; 2 μM compound concentration) [%] | IC50 (full-length human RORγt) [nM] | Kd [1] [nM] | further results
CCn1nc(C(=O)NC[C@]2(O)CC[C@@H](S(C)(=O)=O)CC2)c(Cl)c1-c1ccc(CCC(F)(F)F)cc1Cl [Example 173, 4-Chloro-5-(2-chloro-4-(3,3,3-trifluoropropyl)phenyl)-1-ethyl-N-(((1s,4s)-1-hydroxy-4-(methylsulfonyl)cyclohexyl)methyl)-1H-pyrazole-3-carboxamide] |  | 28 | 12 | inhibition at 0.67 µM (full-length human RORγt): 36%
